Measured values reported in ChEMBL document CHEMBL1133327, “4-Thiazolidinones: novel inhibitors of the bacterial enzyme MurB” (Bioorg Med Chem Lett, 2000).

Tests used:
[1] = molecular target: T1, UDP-N-acetylenolpyruvoylglucosamine reductase (Escherichia coli K-12, UniProt P08373); assay: Inhibition of bacterial enzyme UDP-N-acetylmuramate dehydrogenase
T1 sequence (P08373 whole entry): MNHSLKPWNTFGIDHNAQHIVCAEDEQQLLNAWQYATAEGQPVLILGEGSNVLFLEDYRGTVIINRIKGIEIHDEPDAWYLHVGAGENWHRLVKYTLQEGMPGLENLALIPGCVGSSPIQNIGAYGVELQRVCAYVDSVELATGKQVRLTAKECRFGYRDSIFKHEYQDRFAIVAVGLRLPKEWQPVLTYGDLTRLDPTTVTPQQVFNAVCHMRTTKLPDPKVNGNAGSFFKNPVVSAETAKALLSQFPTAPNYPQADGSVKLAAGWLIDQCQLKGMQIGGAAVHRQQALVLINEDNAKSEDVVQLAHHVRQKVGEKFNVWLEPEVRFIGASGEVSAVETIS

[2] = Compound was tested for in vitro inhibitory activity against the bacterial enzyme UDP-N-acetylmuramate dehydrogenase

Row | SMILES | IC50 [1] | IC50 [2] [µM]
1 | CC1SC(c2cccc(Oc3ccc(C(C)(C)C)cc3)c2)N([C@@H](Cc2ccccc2)C(=O)O)C1=O (stereo partly specified) | Not Active | 
2 | CC1SC(c2cccc(Oc3ccc(C(C)(C)C)cc3)c2)N([C@@H](CC(=O)O)C(=O)O)C1=O (stereo partly specified) | Not Active | 
3 | CC1SC(c2cccc(Oc3ccc(C(C)(C)C)cc3)c2)N([C@@H](CO)C(=O)O)C1=O (stereo partly specified) | Not Active | 
4 | CC(C)(C)c1ccc(Oc2cccc(C3SCC(=O)N3[C@@H](CC(=O)O)C(=O)O)c2)cc1 (stereo partly specified) | Not Active | 
5 | CC(C)(C)c1ccc(Oc2cccc(C3SCC(=O)N3[C@@H](CO)C(=O)O)c2)cc1 (stereo partly specified) | Not Active | 
6 | CC(C)(C)c1ccc(Oc2cccc(C3SC(CC(=O)NNc4ccccc4)C(=O)N3CC(=O)O)c2)cc1 (stereo unspecified) | Not Active | 
7 | CC1SC(c2cccc(Oc3ccc(C(C)(C)C)cc3)c2)N(CC(=O)O)C1=O (stereo unspecified) | Not Active | 
8 | CCCC[C@H](C(=O)O)N1C(=O)CSC1c1cccc(Oc2ccc(C(C)(C)C)cc2)c1 (stereo partly specified) |  | 7.7
9 | CC(C)(C)c1ccc(Oc2cccc(C3SCC(=O)N3[C@@H](CCCN)C(=O)O)c2)cc1 (stereo partly specified) | Not Active | 
10 | CC(C)(C)c1ccc(Oc2cccc(C3SC(CC(=O)NNc4ccccc4)C(=O)N3[C@@H](CCCN)C(=O)O)c2)cc1 (stereo partly specified) | Not Active | 
11 | CC(C)(C)c1ccc(Oc2cccc(C3SC(CC(=O)NNc4ccccc4)C(=O)N3[C@@H](CC(=O)O)C(=O)O)c2)cc1 (stereo partly specified) | Not Active | 
12 | CCCC[C@H](C(=O)O)N1C(=O)C(CC(=O)NNc2ccccc2)SC1c1cccc(Oc2ccc(C(C)(C)C)cc2)c1 (stereo partly specified) |  | 7.7
13 | CC(C)(C)c1ccc(Oc2cccc(C3SCC(=O)N3CC(=O)O)c2)cc1 (stereo unspecified) | Not Active | 
14 | CC(C)(C)c1ccc(Oc2cccc(C3SC(CC(=O)NNc4ccccc4)C(=O)N3[C@@H](CO)C(=O)O)c2)cc1 (stereo partly specified) | Not Active | 
15 | CCCC[C@@H](C(=O)O)N1C(=O)C(C)SC1c1cccc(Oc2ccc(C(C)(C)C)cc2)c1 (stereo partly specified) |  | 14
16 | CC(C)(C)c1ccc(Oc2cccc(C3SCC(=O)N3[C@@H](Cc3ccccc3)C(=O)O)c2)cc1 (stereo partly specified) | Not Active | 
17 | CCCC[C@@H](C(=O)O)N1C(=O)CSC1c1cccc(Oc2ccc(C(C)(C)C)cc2)c1 (stereo partly specified) |  | 28.4
18 | CC1SC(c2cccc(Oc3ccc(C(C)(C)C)cc3)c2)N([C@@H](CCCN)C(=O)O)C1=O (stereo partly specified) | Not Active | 
19 | CC(C)(C)c1ccc(Oc2cccc(C3SC(CC(=O)NNc4ccccc4)C(=O)N3[C@@H](Cc3ccccc3)C(=O)O)c2)cc1 (stereo partly specified) | Not Active | 
20 | CCCC[C@@H](C(=O)O)N1C(=O)C(CC(=O)NNc2ccccc2)SC1c1cccc(Oc2ccc(C(C)(C)C)cc2)c1 (stereo partly specified) |  | 11
21 | CCCC[C@H](C(=O)O)N1C(=O)C(C)SC1c1cccc(Oc2ccc(C(C)(C)C)cc2)c1 (single isomer, unassigned) |  | 10
